# Patent US20200079793A1, “COMPOUNDS AND METHODS FOR MODULATING ADENOSINE A2B RECEPTOR AND ADENOSINE A2A RECEPTOR” (CORVUS PHARMACEUTICALS, INC., priority 2018, published 2020)
# What was measured:
# A1R = target: T1, A1R (Homo sapiens, UniProt P30542); test: Activity assay of adenosine receptor modulators, A1R cAMP (Table 1); format: cell-based
# T1 sequence (P30542 1-326): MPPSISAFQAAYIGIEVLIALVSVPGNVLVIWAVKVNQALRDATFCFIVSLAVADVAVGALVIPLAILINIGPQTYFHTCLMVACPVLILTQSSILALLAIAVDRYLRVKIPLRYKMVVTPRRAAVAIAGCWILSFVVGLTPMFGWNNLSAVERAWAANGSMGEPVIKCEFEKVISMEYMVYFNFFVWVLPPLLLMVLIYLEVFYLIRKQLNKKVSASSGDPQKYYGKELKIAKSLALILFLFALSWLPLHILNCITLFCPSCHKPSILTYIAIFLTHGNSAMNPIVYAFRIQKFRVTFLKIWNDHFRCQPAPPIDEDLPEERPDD
# Experimental: (§1) Compounds (e.g., adenosine receptor modulators) were tested for its biological activity. The assay results in Table 1 indicate (+ means >1 μM; ++ means 100 nM to 1 μM; +++ means <100 nM).
# A3R = target: T2, A3R (Homo sapiens, UniProt P0DMS8); test: Activity assay of adenosine receptor modulators, A3R cAMP (Table 1); format: cell-based
# T2 sequence (P0DMS8 1-318): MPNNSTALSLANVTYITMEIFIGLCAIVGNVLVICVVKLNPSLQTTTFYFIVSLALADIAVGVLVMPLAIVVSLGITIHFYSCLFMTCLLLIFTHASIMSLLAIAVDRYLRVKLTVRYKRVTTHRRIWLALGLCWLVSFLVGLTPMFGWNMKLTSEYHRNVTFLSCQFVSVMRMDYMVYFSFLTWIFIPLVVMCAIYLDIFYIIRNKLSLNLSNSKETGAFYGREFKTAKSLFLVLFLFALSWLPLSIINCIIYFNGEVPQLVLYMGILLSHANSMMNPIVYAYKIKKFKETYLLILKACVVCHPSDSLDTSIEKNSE
# Experimental: as §1
# Adenosine A2B Receptor = target: T3, Adenosine A2B Receptor (Homo sapiens, UniProt P29275); test: Activity assay of adenosine receptor modulators, Adenosine A2B Receptor (Table 1); format: biochemical; settings: cAMP; read-out: A2BR cAMP IC50
# T3 sequence (P29275 1-332): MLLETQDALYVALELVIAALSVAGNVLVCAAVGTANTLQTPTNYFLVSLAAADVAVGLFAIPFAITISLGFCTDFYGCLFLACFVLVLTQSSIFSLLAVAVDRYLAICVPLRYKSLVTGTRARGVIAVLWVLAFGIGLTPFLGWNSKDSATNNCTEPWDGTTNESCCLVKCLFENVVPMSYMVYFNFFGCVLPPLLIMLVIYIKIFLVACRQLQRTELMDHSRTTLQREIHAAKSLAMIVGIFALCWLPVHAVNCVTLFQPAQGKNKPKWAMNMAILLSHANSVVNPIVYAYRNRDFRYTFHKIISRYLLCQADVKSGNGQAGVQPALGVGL
# Experimental: as §1
# Adenosine A2A Receptor = Adenosine A2A Receptor (Homo sapiens, UniProt P29274); test: Activity assay of adenosine receptor modulators, Adenosine A2A Receptor (Table 1); format: biochemical; settings: cAMP; read-out: A2AR cAMP IC50
# Adenosine A2A Receptor, sequence (P29274 whole entry): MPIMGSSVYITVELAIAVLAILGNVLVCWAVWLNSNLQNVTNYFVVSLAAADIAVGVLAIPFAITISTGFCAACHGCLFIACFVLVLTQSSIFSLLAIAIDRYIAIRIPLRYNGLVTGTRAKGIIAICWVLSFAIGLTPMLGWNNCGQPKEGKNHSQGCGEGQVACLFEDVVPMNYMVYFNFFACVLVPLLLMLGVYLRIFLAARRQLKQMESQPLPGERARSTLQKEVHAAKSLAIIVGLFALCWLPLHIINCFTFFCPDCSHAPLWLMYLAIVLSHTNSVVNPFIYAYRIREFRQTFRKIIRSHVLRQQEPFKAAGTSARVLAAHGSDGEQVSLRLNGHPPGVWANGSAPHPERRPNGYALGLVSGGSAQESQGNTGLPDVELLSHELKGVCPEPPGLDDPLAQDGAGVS
# Experimental: as §1
Structure (SMILES),IC50 (A1R),IC50 (A3R),IC50 (Adenosine A2B Receptor),IC50 (Adenosine A2A Receptor)
"Cc1nc2nc(N[C@@H](C)c3ccccn3)nc(C(=O)N3CCCC3)c2s1 [Example 9, (S)-(2-Methyl-5-((1-(pyridin-2-yl)ethyl)amino)thiazolo[4,5-d]pyrimidin-7-yl)(pyrrolidin-1-yl)methanone]",> 1000 nM,100 to 1000 nM,< 100 nM,100 to 1000 nM
"Cc1nc2nc(N[C@@H](C)c3cncc(F)c3)nc(C(=O)NCC3CCOCC3)c2s1 [Example 11, (S)-5-((1-(5-Fluoropyridin-3-yl)ethyl)amino)-2-methyl-N-((tetrahydro-2H-pyran-4-yl)methyl)thiazolo[4,5-d]pyrimidine-7-carboxamide]",100 to 1000 nM,> 1000 nM,< 100 nM,100 to 1000 nM
"Cc1nc2nc(N[C@@H](C)c3cccnc3)nc(C(=O)NC[C@H](C)O)c2s1 [Example 15, N—((S)-2-Hydroxypropyl)-2-methyl-5-(((S)-1-(pyridin-3-yl)ethyl)amino)thiazolo[4,5-d]pyrimidine-7-carboxamide]",> 1000 nM,> 1000 nM,< 100 nM,> 1000 nM
"Cc1nc2nc(N[C@@H](C)c3cccnc3)nc(C(=O)N3CC[C@@H](O)C3)c2s1 [Example 16, ((R)-3-Hydroxypyrrolidin-1-yl)(2-methyl-5-(((S)-1-(pyridin-3-yl)ethyl)amino)thiazolo[4,5-d]pyrimidin-7-yl)methanone]",> 1000 nM,> 1000 nM,< 100 nM,> 1000 nM
"CC(=O)Nc1ccc(CCNC(=O)c2nc(N[C@@H](C)c3cncc(F)c3)nc3nc(C)sc23)cc1 [Example 24, (S)—N-(4-Acetamidophenethyl)-5-((1-(5-fluoropyridin-3-yl)ethyl)amino)-2-methylthiazolo[4,5-d]pyrimidine-7-carboxamide]",> 1000 nM,> 1000 nM,< 100 nM,> 1000 nM
"COCCNC(=O)c1nc(N[C@@H](C)c2cncc(F)c2)nc2nc(C)sc12 [Example 25, (S)-5-((1-(5-Fluoropyridin-3-yl)ethyl)amino)-N-(2-methoxyethyl)-2-methylthiazolo[4,5-d]pyrimidine-7-carboxamide]",> 1000 nM,> 1000 nM,< 100 nM,100 to 1000 nM
"CC(=O)N[C@H]1CCN(C(=O)c2nc(N[C@@H](C)c3cncc(F)c3)nc3nc(C)sc23)C1 [Example 29, N—((S)-1-(5-(((S)-1-(5-Fluoropyridin-3-yl)ethyl)amino)-2-methylthiazolo[4,5-d]pyrimidine-7-carbonyl)pyrrolidin-3-yl)acetamide]",> 1000 nM,100 to 1000 nM,< 100 nM,100 to 1000 nM
"CC(=O)N[C@@H]1CCN(C(=O)c2nc(N[C@@H](C)c3cncc(F)c3)nc3nc(C)sc23)C1 [Example 30, N—((R)-1-(5-(((S)-1-(5-Fluoropyridin-3-yl)ethyl)amino)-2-methylthiazolo[4,5-d]pyrimidine-7-carbonyl)pyrrolidin-3-yl)acetamide]",> 1000 nM,> 1000 nM,100 to 1000 nM,> 1000 nM
"Cc1nc2nc(N[C@@H](C)c3cncc(F)c3)nc(C(=O)NCCc3ccc(S(N)(=O)=O)cc3)c2s1 [Example 31, (S)-5-((1-(5-Fluoropyridin-3-yl)ethyl)amino)-2-methyl-N-(4-sulfamoylphenethyl)thiazolo[4,5-d]pyrimidine-7-carboxamide]",> 1000 nM,> 1000 nM,< 100 nM,> 1000 nM
"Cc1nc2nc(N[C@@H](C)c3cncc(F)c3)nc(C(=O)N3CC(C(N)=O)C3)c2s1 [Example 33, (S)-1-(5-((1-(5-Fluoropyridin-3-yl)ethyl)amino)-2-methylthiazolo[4,5-d]pyrimidine-7-carbonyl)azetidine-3-carboxamide]",> 1000 nM,> 1000 nM,< 100 nM,> 1000 nM
"Cc1nc2nc(N[C@@H](C)c3cncc(F)c3)nc(C(=O)N3CC(NC(=O)C(C)(C)C)C3)c2s1 [Example 37, (S)—N-(1-(5-((1-(5-Fluoropyridin-3-yl)ethyl)amino)-2-methylthiazolo[4,5-d]pyrimidine-7-carbonyl)azetidin-3-yl)pivalamide]",> 1000 nM,< 100 nM,< 100 nM,< 100 nM
"CCNC(=O)C1CCN(C(=O)c2nc(N[C@@H](C)c3cncc(F)c3)nc3nc(C)sc23)C1 (stereo partly drawn) [Example 38, N-ethyl-1-(5-(((S)-1-(5-fluoropyridin-3-yl)ethyl)amino)-2-methylthiazolo[4,5-d]pyrimidine-7-carbonyl)pyrrolidine-3-carboxamide]",> 1000 nM,> 1000 nM,< 100 nM,> 1000 nM
"CC(=O)NCC1CN(C(=O)c2nc(N[C@@H](C)c3cncc(F)c3)nc3nc(C)sc23)C1 [Example 39, (S)—N-((1-(5-((1-(5-Fluoropyridin-3-yl)ethyl)amino)-2-methylthiazolo[4,5-d]pyrimidine-7-carbonyl)azetidin-3-yl)methyl)acetamide]",> 1000 nM,> 1000 nM,< 100 nM,> 1000 nM

# Continued, values first:
IC50 (A1R),IC50 (A3R),IC50 (Adenosine A2B Receptor),IC50 (Adenosine A2A Receptor),Structure (SMILES)
> 1000 nM,> 1000 nM,< 100 nM,> 1000 nM,"Cc1nc2nc(N[C@@H](C)c3cccnc3)nc(C(=O)NC[C@@H](C)O)c2s1 [Example 12, N—((R)-2-Hydroxypropyl)-2-methyl-5-(((S)-1-(pyridin-3-yl)ethyl)amino)thiazolo[4,5-d]pyrimidine-7-carboxamide]"
100 to 1000 nM,100 to 1000 nM,< 100 nM,100 to 1000 nM,"Cc1nc2nc(N[C@@H](C)c3cncc(F)c3)nc(C(=O)NC[C@@H]3CCOC3)c2s1 [Example 13, 5-(((S)-1-(5-Fluoropyridin-3-yl)ethyl)amino)-2-methyl-N—(((S)-tetrahydrofuran-3-yl)methyl)thiazolo[4,5-d]pyrimidine-7-carboxamide]"
100 to 1000 nM,> 1000 nM,< 100 nM,> 1000 nM,"Cc1nc2nc(N[C@@H](C)c3cncc(F)c3)nc(C(=O)NC[C@H]3CCOC3)c2s1 [Example 14, 5-(((S)-1-(5-Fluoropyridin-3-yl)ethyl)amino)-2-methyl-N—(((R)-tetrahydrofuran-3-yl)methyl)thiazolo[4,5-d]pyrimidine-7-carboxamide]"
> 1000 nM,> 1000 nM,< 100 nM,> 1000 nM,"Cc1nc2nc(N[C@@H](C)c3ccccn3)nc(C(=O)N3CC[C@H](O)C3)c2s1 [Example 17, ((S)-3-Hydroxypyrrolidin-1-yl)(2-methyl-5-(((S)-1-(pyridin-2-yl)ethyl)amino)thiazolo[4,5-d]pyrimidin-7-yl)methanone]"
> 1000 nM,> 1000 nM,< 100 nM,> 1000 nM,"Cc1nc2nc(N[C@@H](C)c3cccnc3)nc(C(=O)N3CC[C@H](O)C3)c2s1 [Example 18, ((S)-3-Hydroxypyrrolidin-1-yl)(2-methyl-5-(((S)-1-(pyridin-3-yl)ethyl)amino)thiazolo[4,5-d]pyrimidin-7-yl)methanone]"
> 1000 nM,> 1000 nM,< 100 nM,> 1000 nM,"Cc1nc2nc(N[C@@H](C)c3cncc(F)c3)nc(C(=O)NCCc3ccc(O)cc3)c2s1 [Example 21, (S)-5-((1-(5-Fluoropyridin-3-yl)ethyl)amino)-N-(4-hydroxyphenethyl)-2-methylthiazolo[4,5-d]pyrimidine-7-carboxamide]"
> 1000 nM,> 1000 nM,< 100 nM,100 to 1000 nM,"CC(=O)NC1CN(C(=O)c2nc(N[C@@H](C)c3cncc(F)c3)nc3nc(C)sc23)C1 [Example 28, (S)—N-(1-(5-((1-(5-Fluoropyridin-3-yl)ethyl)amino)-2-methylthiazolo[4,5-d]pyrimidine-7-carbonyl)azetidin-3-yl)acetamide]"
> 1000 nM,> 1000 nM,< 100 nM,> 1000 nM,"Cc1nc2nc(N[C@@H](C)c3cncc(F)c3)nc(C(=O)NCCC3CCNCC3)c2s1 [Example 32, (S)-5-((1-(5-Fluoropyridin-3-yl)ethyl)amino)-2-methyl-N-(2-(piperidin-4-yl)ethyl)thiazolo[4,5-d]pyrimidine-7-carboxamide]"
